# Reference: ChEMBL document CHEMBL1132989, “A novel macromolecular prodrug concept exploiting endogenous serum albumin as a drug carrier for cancer chemotherapy” (2000)
# Test: Dose required for antitumor efficacy tested in vivo against primary kidney tumors in murine renal carcinoma (RENCA)
# Assay type: functional, Mus musculus
compound,measurement,value
COc1cccc2c1C(=O)c1c(O)c3c(c(O)c1C2=O)C[C@@](O)(/C(CO)=N/NC(=O)Cc1ccc(N2C(=O)C=CC2=O)cc1)C[C@@H]3OC1CC(C)C(O)C(N)C1.Cl (stereo partly specified),Dose,80 mM/kg
